Legend:
in vivo [1] = settings: Sprague-Dawley, rat, iv, 2 (umol/kg)/hr
in vitro = settings: Sprague-Dawley, rat, plasma, iv, 2 (umol/kg)/hr
clinical = settings: human, CSF and plasma
Plasma [2] = settings: rat, iv, 4 h
in vivo [3] = settings: Sprague-Dawley, rat, iv, 2 (umol/kg)/hr; remark: listed apart in the source
Brain = settings: rat, in vivo, iv, 4 h
in vivo [4] = settings: Sprague-Dawley, rat, iv, 2 (umol/kg)/hr; remark: listed apart in the source
[5] = rat, brain, iv, 4 h
Plasma [6] = settings: rat, iv, 4 h; remark: listed apart in the source

Compound	Kp uu at 4 h (in vivo [1]; brain)	fraction unbound at 4 h (in vitro)	Kp uu (clinical)	Cp(f) (Plasma [2])	Kp at 4 h (in vivo [3]; brain)	Vdu (Brain)	Kp uu at 4 h (in vivo [1]; brain and plasma)	Kp uu at 4 h (in vivo [4]; CSF and plasma)	BPR [5]	Kp uu at 4 h (in vivo [4]; csf)	Kp at 4 h (in vivo [3]; brain and plasma)	BPR ([5]; Sprague-Dawley, 2 (umol/kg)/hr)	Fu (Plasma [6])
CC(C)(C)NC(=O)[C@@H]1C[C@@H]2CCCC[C@@H]2CN1C[C@@H](O)[C@H](Cc1ccccc1)NC(=O)[C@H](CC(N)=O)NC(=O)c1ccc2ccccc2n1	0.055	0.007	0.096	3 nM	0.08	208 mL							
Cc1c(O)cccc1C(=O)N[C@@H](CSc1ccccc1)[C@H](O)CN1C[C@H]2CCCC[C@H]2C[C@H]1C(=O)NC(C)(C)C			0.045	1.9 nM		860 mL	0.019	0.067	0.04				
COc1ccc(CCN(C)CCCC(C#N)(c2ccc(OC)c(OC)c2)C(C)C)cc1OC (stereo not given)				75 nM									
C=CCc1ccccc1OCC(O)CNC(C)C (stereo not given) [ALPRENOLOL]	0.38	0.44		280 nM	8.27	50 mL				0.33			
CN(C)CCC=C1c2ccccc2CCc2ccccc21 [AMITRIPTYLINE]		0.09	0.18	22 nM		310 mL	0.73	0.17			20.1		
NCC(CC(=O)O)c1ccc(Cl)cc1 (stereo not given) [BACLOFEN]		1	0.17	4200 nM		1.7 mL	0.02	0.027			0.03		
CC(NC(C)(C)C)C(=O)c1cccc(Cl)c1 (stereo not given) [BUPROPION]		0.31	2	79 nM		16 mL	2	0.49			9.78		
COc1ccc2c3c1O[C@H]1[C@@H](O)C=C[C@H]4[C@@H](C2)N(C)CC[C@@]341 [CODEINE]	0.89	0.95	0.79	210 nM	2.7	3.2 mL				0.54			
CC(C)Nc1cccnc1N1CCN(C(=O)c2cc3cc(NS(C)(=O)=O)ccc3[nH]2)CC1 [DELAVIRDINE]	0.043	0.016	0.23	17 nM	0.03	40 mL				0.051			
NCC1(CC(=O)O)CCCCC1 [GABAPENTIN]		1	0.16	5200 nM		4.6 mL	0.14	0.067			0.64		
COc1ccc2c(c1)c(CC(=O)O)c(C)n2C(=O)c1ccc(Cl)cc1 [INDOMETHACIN]	0.11	0.01	0.27	200 nM	0.01	14 mL				0.17			
Nc1nnc(-c2cccc(Cl)c2Cl)c(N)n1 [LAMOTRIGINE]	0.88	0.51	1.1	1800 nM		4.6 mL				0.86		2.02	
C[C@H]1COc2c(N3CCN(C)CC3)c(F)cc3c(=O)c(C(=O)O)cn1c23.C[C@H]1COc2c(N3CCN(C)CC3)c(F)cc3c(=O)c(C(=O)O)cn1c23.O [LEVOFLOXACIN]		0.82	0.18	590 nM		1.7 mL	0.12	0.19			0.17		
CN(C)C(=O)C(CCN1CCC(O)(c2ccc(Cl)cc2)CC1)(c1ccccc1)c1ccccc1 [LOPERAMIDE]		0.06		54 nM		370 mL	0.007	0.037			0.15		
CN(Cc1cnc2nc(N)nc(N)c2n1)c1ccc(C(=O)N[C@@H](CCC(=O)O)C(=O)O)cc1 [METHOTREXATE]	0.006	1	0.062	2900 nM	0.004	0.68 mL				0.007			
COCCc1ccc(OCC(O)CNC(C)C)cc1 (stereo not given) [METOPROLOL]		0.9		750 nM									
CN1CC[C@]23c4c5ccc(O[C@@H]6O[C@H](C(=O)O)[C@@H](O)[C@H](O)[C@H]6O)c4O[C@H]2[C@@H](O)C=C[C@H]3[C@H]1C5 [MORPHINE 3-GLUCURONIDE]		1	0.081	2700 nM		0.6 mL	0.011	0.049			0.007		
CN1CC[C@]23c4c5ccc(O)c4O[C@H]2[C@@H](O[C@@H]2O[C@H](C(=O)O)[C@@H](O)[C@H](O)[C@H]2O)C=C[C@H]3[C@H]1C5 [MORPHINE GLUCURONIDE]		0.98	0.1	2100 nM		0.99 mL	0.008	0.017			0.008		
CO[C@@]1(NC(=O)C(C(=O)O)c2ccc(O)cc2)C(=O)N2C(C(=O)O)=C(CSc3nnnn3C)CO[C@@H]21 (stereo not given in full) [MOXALACTAM]	0.019	0.32	0.41	3800 nM	0.003	0.57 mL				0.02			

Compound	Kp uu at 4 h (in vivo [1]; brain)	fraction unbound at 4 h (in vitro)	Kp uu (clinical)	Cp(f) (Plasma [2])	Kp at 4 h (in vivo [3]; brain)	Vdu (Brain)	Kp uu at 4 h (in vivo [1]; brain and plasma)	Kp uu at 4 h (in vivo [4]; CSF and plasma)	BPR [5]	Kp uu at 4 h (in vivo [4]; csf)	Kp at 4 h (in vivo [3]; brain and plasma)	BPR ([5]; Sprague-Dawley, 2 (umol/kg)/hr)	Fu (Plasma [6])
CC(C)(C)NCC(O)COc1cccc2c1CC(O)C(O)C2 (stereo not given) [NADOLOL]		0.86		780 nM									
O=C1CN(/N=C/c2ccc([N+](=O)[O-])o2)C(=O)N1 [NITROFURANTOIN]	0.011	0.48		710 nM	0.008	1.6 mL				0.0099			
CCn1cc(C(=O)O)c(=O)c2cc(F)c(N3CCNCC3)cc21 [NORFLOXACIN]	0.028	0.87	0.11	700 nM	0.07	2.9 mL				0.018			
C=CCOc1ccccc1OCC(O)CNC(C)C (stereo not given) [OXPRENOLOL]	0.2	0.45		210 nM	1.06	11.8 mL				0.1			
COc1ccc2c3c1O[C@H]1C(=O)CC[C@@]4(O)[C@@H](C2)N(C)CC[C@]314 [OXYCODONE]		0.87		330 nM									
CN1CC[C@]23c4c5ccc(O)c4O[C@H]2C(=O)CC[C@@]3(O)[C@H]1C5 [OXYMORPHONE]		0.73		240 nM		4 mL	0.79	0.91			2.29		
CCC(C(N)=O)(C(N)=O)c1ccccc1 [PHENYLETHYLMALONAMIDE]		0.55		4300 nM		0.9 mL	1.25	1.4			0.64		
CC(C)NCC(O)COc1cccc2[nH]ccc12 (stereo not given) [PINDOLOL]		0.43	0.52	160 nM			0.5	0.11			1.56		
CC(C)NCC(O)COc1cccc2ccccc12 (stereo not given) [PROPRANOLOL]		0.09	0.42	51 nM		118 mL	0.61	0.49			6.59		
CO[C@H]1/C=C/O[C@@]2(C)Oc3c(C)c(O)c4c(O)c(c(/C=N/N5CCN(C)CC5)c(O)c4c3C2=O)NC(=O)/C(C)=C\C=C\[C@H](C)[C@H](O)[C@@H](C)[C@@H](O)[C@@H](C)[C@H](OC(C)=O)[C@@H]1C [RIFAMPIN]		0.12		830 nM									
O=C(O)c1ccccc1O [SALICYLIC ACID]	0.19	0.28	0.19	5600 nM	0.05	1 mL				0.16			
O=C(O)c1cc(/N=N/c2ccc(S(=O)(=O)Nc3ccccn3)cc2)ccc1O [SULFASALAZINE]		0.005		13 nM				0.032					
Nc1c2c(nc3ccccc13)CCCC2 [TACRINE]	0.78	0.55	0.74	120 nM	9.56	22 mL				0.67			
CCCC(C)C1(CC)C(=O)NC(=S)NC1=O (stereo not given) [THIOPENTAL]		0.19		550 nM									
CSc1ccc2c(c1)N(CCC1CCCCN1C)c1ccccc1S2 (stereo not given) [THIORIDAZINE]	0.45		1.4	1.3 nM	3.75	3333 mL				0.21			0.002
CC1(C)O[C@@H]2[C@@H](CO[C@@]3(COS(N)(=O)=O)OC(C)(C)O[C@@H]23)O1 [TOPIRAMATE]		0.79	1	3400 nM		3.2 mL	0.33	0.63			0.84		
COc1cccc(C2(O)CCCCC2CN(C)C)c1 (stereo not given) [TRAMADOL]	1.46	0.85	1.44	300 nM	5.29	4.2 mL				0.71			
Cc1cn([C@H]2C[C@H](N=[N+]=[N-])[C@@H](CO)O2)c(=O)[nH]c1=O [ZIDOVUDINE]		0.64		1200 nM									

Reference: ChEMBL document CHEMBL1795238, “Structure-brain exposure relationships in rat and human using a novel data set of unbound drug concentrations in brain interstitial and cerebrospinal fluids” (J Med Chem, 2009)
